From patent US10188667B2, “Pharmaceutical compositions and methods of use of 4-pregenen-11β-17-21-triol-3,20-dione derivatives” (ALLERGAN, INC., priority 2011, dated 2019)

What was measured:
[1] = biological target: Glucocorticoid receptor (GR) (Homo sapiens (Human), UniProt P04150); assay: Glucocorticoid receptor transactivation, MMTV-bla HeLa CELLSENSOR reporter assay, agonist mode; assay type: cell-based; conditions: for % Activation at 100 nM: control compound dexamethasone; for EC50: 5 hours incubation, maximum concentration 100 nM
[2] = patients; eye drops; compared to synthetic GCs such as dexamethasone, prednisolone, fluorometholone; cited from earlier work
GAL4(DBD)-MR(LBD) = GAL4(DBD)-MR(LBD) (Homo sapiens (Human), UniProt P08235); assay: Mineralocorticoid receptor transactivation, UAS-bla HEK 293T CELLSENSOR reporter assay, agonist mode; assay type: cell-based; conditions: for % Activation at 100 nM: control compound aldosterone; for EC50: 16 hours incubation, maximum concentration 100 nM, read-out: EC50 (nM) MR (Table 4: mineralocorticoid receptor potency)
GAL4(DBD)-MR(LBD), sequence (P08235 726-964): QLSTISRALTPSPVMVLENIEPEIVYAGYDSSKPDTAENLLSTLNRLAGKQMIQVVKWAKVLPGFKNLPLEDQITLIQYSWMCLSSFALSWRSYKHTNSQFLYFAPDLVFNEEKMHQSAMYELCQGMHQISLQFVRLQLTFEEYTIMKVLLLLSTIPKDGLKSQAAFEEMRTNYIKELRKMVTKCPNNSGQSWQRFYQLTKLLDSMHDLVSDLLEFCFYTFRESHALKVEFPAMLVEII
Description: Mineralocorticoid receptor (MR) activation potency was assessed using a HEK 293T cell line containing the UAS-bla reporter (UAS-bla HEK 293T CELLSENSOR®). This cell line was stably cotransfected with an expression construct containing β-lactamase cDNA under control of the GAL4 Upstream Activator Sequence (UAS) and another expression construct encoding for the fusion protein GAL4(DBD)-MR(LBD). […] All assays were performed as 10-point dose responses using a half log-fold dilution series starting with a maximum compound concentration of 100 nM. The compounds were incubated for 16 hours. The activation of the fusion protein GAL4(DBD)-MR(LBD) leads to expression of the reporter β-lactamase which is detected by the conversion of a FRET substrate in a ratiometric assay format. This functional assay allows for measurement of receptor agonism by compounds and can be used to determine compound potency and selectivity. Assay reproducibility was determined by calculating Z′ values for untreated versus maximum stimulation. The Z′ value was greater than 0.6, indicating good reproducibility of the assay format.

Glucocorticoid receptor (GR), sequence (P04150 whole entry): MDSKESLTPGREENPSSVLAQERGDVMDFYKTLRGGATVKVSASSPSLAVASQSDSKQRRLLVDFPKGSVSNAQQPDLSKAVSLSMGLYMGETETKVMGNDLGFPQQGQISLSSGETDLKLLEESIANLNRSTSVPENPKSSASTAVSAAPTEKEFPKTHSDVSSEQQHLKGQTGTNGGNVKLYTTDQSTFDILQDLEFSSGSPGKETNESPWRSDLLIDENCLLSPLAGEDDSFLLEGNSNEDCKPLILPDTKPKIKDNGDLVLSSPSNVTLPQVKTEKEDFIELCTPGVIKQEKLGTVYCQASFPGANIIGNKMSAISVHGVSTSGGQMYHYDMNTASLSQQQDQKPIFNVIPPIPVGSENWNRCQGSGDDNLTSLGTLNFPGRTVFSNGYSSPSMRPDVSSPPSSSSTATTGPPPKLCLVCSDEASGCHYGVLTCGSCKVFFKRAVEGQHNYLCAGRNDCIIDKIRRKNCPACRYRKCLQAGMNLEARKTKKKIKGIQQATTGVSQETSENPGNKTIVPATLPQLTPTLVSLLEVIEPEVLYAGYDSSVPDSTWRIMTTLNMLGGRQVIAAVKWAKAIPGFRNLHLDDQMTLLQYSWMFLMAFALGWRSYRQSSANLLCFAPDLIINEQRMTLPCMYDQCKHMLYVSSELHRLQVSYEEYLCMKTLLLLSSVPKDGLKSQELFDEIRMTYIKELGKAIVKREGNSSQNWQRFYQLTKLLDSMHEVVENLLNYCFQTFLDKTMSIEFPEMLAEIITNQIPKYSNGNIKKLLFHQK

C[C@]12CCC(=O)C=C1CC[C@@H]1[C@@H]2[C@@H](O)C[C@@]2(C)[C@H]1CC[C@]2(O)C(=O)CO [drawing 18]
% Activation at 100 nM [1]: 43%

C[C@]12CCC(=O)C=C1CC[C@@H]1[C@@H]2[C@@H](O)C[C@@]2(C)[C@H]1CC[C@]2(O)C(=O)CO [cortisol]
effect on intraocular pressure [2]: minimal effect on intraocular pressure

C[C@]12CCC(=O)C=C1CC[C@@H]1[C@@H]2[C@@H](O)C[C@@]2(C)[C@H]1CC[C@]2(OC(=O)Cc1ccccc1)C(=O)CO [drawing 20]
% Activation at 100 nM [1]: 5% | EC50 [1]: > 100 nM

CCCCCC(=O)O[C@]1(C(=O)CO)CC[C@H]2[C@@H]3CCC4=CC(=O)CC[C@]4(C)[C@H]3[C@@H](O)C[C@@]21C [drawing 27]
% Activation at 100 nM (GAL4(DBD)-MR(LBD)): 64% | EC50 (GAL4(DBD)-MR(LBD)): 5.68 nM

CCCCCCC(=O)O[C@]1(C(=O)CO)CC[C@H]2[C@@H]3CCC4=CC(=O)CC[C@]4(C)[C@H]3[C@@H](O)C[C@@]21C [drawing 15]
% Activation at 100 nM [1]: 47% | EC50 [1]: 6.04 nM

CCCCCCC(=O)O[C@]1(C(=O)CO)CC[C@H]2[C@@H]3CCC4=CC(=O)CC[C@]4(C)[C@H]3[C@@H](O)C[C@@]21C [drawing 19]
% Activation at 100 nM [1]: 15% | EC50 [1]: > 100 nM

C[C@]12CCC(=O)C=C1CC[C@@H]1[C@@H]2[C@@H](O)C[C@@]2(C)[C@H]1CC[C@]2(OC(=O)c1ccccc1)C(=O)CO [drawing 12]
% Activation at 100 nM [1]: 85% | EC50 [1]: 1.41 nM

CC(C)C(=O)O[C@]1(C(=O)CO)CC[C@H]2[C@@H]3CCC4=CC(=O)CC[C@]4(C)[C@H]3[C@@H](O)C[C@@]21C [drawing 30]
% Activation at 100 nM (GAL4(DBD)-MR(LBD)): 62% | EC50 (GAL4(DBD)-MR(LBD)): 15.6 nM

C[C@]12CCC(=O)C=C1CC[C@@H]1[C@@H]2[C@@H](O)C[C@@]2(C)[C@H]1CC[C@]2(OC(=O)c1ccccc1)C(=O)CO [drawing 28]
% Activation at 100 nM (GAL4(DBD)-MR(LBD)): 62% | EC50 (GAL4(DBD)-MR(LBD)): 7.46 nM

CCCCCCC(=O)O[C@]1(C(=O)CO)CC[C@H]2[C@@H]3CCC4=CC(=O)CC[C@]4(C)[C@H]3[C@@H](O)C[C@@]21C [drawing 26]
% Activation at 100 nM (GAL4(DBD)-MR(LBD)): 72% | EC50 (GAL4(DBD)-MR(LBD)): 5.27 nM

CC(C)C(=O)O[C@]1(C(=O)CO)CC[C@H]2[C@@H]3CCC4=CC(=O)CC[C@]4(C)[C@H]3[C@@H](O)C[C@@]21C [drawing 17]
% Activation at 100 nM [1]: 84% | EC50 [1]: 7.07 nM

CCC(=O)O[C@]1(C(=O)CO)CC[C@H]2[C@@H]3CCC4=CC(=O)CC[C@]4(C)[C@H]3[C@@H](O)C[C@@]21C [drawing 16]
% Activation at 100 nM [1]: 85% | EC50 [1]: 6.31 nM

CCCCCCC(=O)O[C@]1(C(=O)CO)CC[C@H]2[C@@H]3CCC4=CC(=O)CC[C@]4(C)[C@H]3[C@@H](O)C[C@@]21C [drawing 29]
% Activation at 100 nM (GAL4(DBD)-MR(LBD)): 56% | EC50 (GAL4(DBD)-MR(LBD)): 9.29 nM

CCC(=O)O[C@]1(C(=O)CO)CC[C@H]2[C@@H]3CCC4=CC(=O)CC[C@]4(C)[C@H]3[C@@H](O)C[C@@]21C [drawing 25]
% Activation at 100 nM (GAL4(DBD)-MR(LBD)): 76% | EC50 (GAL4(DBD)-MR(LBD)): 3.17 nM

C[C@]12CCC(=O)C=C1CC[C@@H]1[C@@H]2[C@@H](O)C[C@@]2(C)[C@H]1CC[C@]2(OC(=O)C1CCCC1)C(=O)CO [drawing 11]
% Activation at 100 nM [1]: 88% | EC50 [1]: 1.35 nM

CCCC(=O)O[C@]1(C(=O)CO)CC[C@H]2[C@@H]3CCC4=CC(=O)CC[C@]4(C)[C@H]3[C@@H](O)C[C@@]21C [drawing 24]
% Activation at 100 nM (GAL4(DBD)-MR(LBD)): 77% | EC50 (GAL4(DBD)-MR(LBD)): 2.94 nM

CCCC(=O)O[C@]1(C(=O)CO)CC[C@H]2[C@@H]3CCC4=CC(=O)CC[C@]4(C)[C@H]3[C@@H](O)C[C@@]21C [drawing 13]
% Activation at 100 nM [1]: 86% | EC50 [1]: 1.97 nM

CCCCCC(=O)O[C@]1(C(=O)CO)CC[C@H]2[C@@H]3CCC4=CC(=O)CC[C@]4(C)[C@H]3[C@@H](O)C[C@@]21C [drawing 14]
% Activation at 100 nM [1]: 65% | EC50 [1]: 3.25 nM

C[C@]12CCC(=O)C=C1CC[C@@H]1[C@@H]2[C@@H](O)C[C@@]2(C)[C@H]1CC[C@]2(OC(=O)Cc1ccccc1)C(=O)CO [drawing 22]
% Activation at 100 nM (GAL4(DBD)-MR(LBD)): 81% | EC50 (GAL4(DBD)-MR(LBD)): 2.85 nM

C[C@]12CCC(=O)C=C1CC[C@@H]1[C@@H]2[C@@H](O)C[C@@]2(C)[C@H]1CC[C@]2(O)C(=O)CO [drawing 23]
% Activation at 100 nM (GAL4(DBD)-MR(LBD)): 75% | EC50 (GAL4(DBD)-MR(LBD)): 2.9 nM

C[C@]12CCC(=O)C=C1CC[C@@H]1[C@@H]2[C@@H](O)C[C@@]2(C)[C@H]1CC[C@]2(OC(=O)C1CCCC1)C(=O)CO [drawing 31]
% Activation at 100 nM (GAL4(DBD)-MR(LBD)): 27% | EC50 (GAL4(DBD)-MR(LBD)): > 100 nM
